According to PMC3331904 (2012):

Biological target: TORC1 (TOR complex 1 kinase) (Saccharomyces cerevisiae, UniProt P35169)
Experiment: TORC1 in vitro kinase assay
Assay type: biochemical

Sequence of TORC1 (TOR complex 1 kinase) (P35169 whole entry): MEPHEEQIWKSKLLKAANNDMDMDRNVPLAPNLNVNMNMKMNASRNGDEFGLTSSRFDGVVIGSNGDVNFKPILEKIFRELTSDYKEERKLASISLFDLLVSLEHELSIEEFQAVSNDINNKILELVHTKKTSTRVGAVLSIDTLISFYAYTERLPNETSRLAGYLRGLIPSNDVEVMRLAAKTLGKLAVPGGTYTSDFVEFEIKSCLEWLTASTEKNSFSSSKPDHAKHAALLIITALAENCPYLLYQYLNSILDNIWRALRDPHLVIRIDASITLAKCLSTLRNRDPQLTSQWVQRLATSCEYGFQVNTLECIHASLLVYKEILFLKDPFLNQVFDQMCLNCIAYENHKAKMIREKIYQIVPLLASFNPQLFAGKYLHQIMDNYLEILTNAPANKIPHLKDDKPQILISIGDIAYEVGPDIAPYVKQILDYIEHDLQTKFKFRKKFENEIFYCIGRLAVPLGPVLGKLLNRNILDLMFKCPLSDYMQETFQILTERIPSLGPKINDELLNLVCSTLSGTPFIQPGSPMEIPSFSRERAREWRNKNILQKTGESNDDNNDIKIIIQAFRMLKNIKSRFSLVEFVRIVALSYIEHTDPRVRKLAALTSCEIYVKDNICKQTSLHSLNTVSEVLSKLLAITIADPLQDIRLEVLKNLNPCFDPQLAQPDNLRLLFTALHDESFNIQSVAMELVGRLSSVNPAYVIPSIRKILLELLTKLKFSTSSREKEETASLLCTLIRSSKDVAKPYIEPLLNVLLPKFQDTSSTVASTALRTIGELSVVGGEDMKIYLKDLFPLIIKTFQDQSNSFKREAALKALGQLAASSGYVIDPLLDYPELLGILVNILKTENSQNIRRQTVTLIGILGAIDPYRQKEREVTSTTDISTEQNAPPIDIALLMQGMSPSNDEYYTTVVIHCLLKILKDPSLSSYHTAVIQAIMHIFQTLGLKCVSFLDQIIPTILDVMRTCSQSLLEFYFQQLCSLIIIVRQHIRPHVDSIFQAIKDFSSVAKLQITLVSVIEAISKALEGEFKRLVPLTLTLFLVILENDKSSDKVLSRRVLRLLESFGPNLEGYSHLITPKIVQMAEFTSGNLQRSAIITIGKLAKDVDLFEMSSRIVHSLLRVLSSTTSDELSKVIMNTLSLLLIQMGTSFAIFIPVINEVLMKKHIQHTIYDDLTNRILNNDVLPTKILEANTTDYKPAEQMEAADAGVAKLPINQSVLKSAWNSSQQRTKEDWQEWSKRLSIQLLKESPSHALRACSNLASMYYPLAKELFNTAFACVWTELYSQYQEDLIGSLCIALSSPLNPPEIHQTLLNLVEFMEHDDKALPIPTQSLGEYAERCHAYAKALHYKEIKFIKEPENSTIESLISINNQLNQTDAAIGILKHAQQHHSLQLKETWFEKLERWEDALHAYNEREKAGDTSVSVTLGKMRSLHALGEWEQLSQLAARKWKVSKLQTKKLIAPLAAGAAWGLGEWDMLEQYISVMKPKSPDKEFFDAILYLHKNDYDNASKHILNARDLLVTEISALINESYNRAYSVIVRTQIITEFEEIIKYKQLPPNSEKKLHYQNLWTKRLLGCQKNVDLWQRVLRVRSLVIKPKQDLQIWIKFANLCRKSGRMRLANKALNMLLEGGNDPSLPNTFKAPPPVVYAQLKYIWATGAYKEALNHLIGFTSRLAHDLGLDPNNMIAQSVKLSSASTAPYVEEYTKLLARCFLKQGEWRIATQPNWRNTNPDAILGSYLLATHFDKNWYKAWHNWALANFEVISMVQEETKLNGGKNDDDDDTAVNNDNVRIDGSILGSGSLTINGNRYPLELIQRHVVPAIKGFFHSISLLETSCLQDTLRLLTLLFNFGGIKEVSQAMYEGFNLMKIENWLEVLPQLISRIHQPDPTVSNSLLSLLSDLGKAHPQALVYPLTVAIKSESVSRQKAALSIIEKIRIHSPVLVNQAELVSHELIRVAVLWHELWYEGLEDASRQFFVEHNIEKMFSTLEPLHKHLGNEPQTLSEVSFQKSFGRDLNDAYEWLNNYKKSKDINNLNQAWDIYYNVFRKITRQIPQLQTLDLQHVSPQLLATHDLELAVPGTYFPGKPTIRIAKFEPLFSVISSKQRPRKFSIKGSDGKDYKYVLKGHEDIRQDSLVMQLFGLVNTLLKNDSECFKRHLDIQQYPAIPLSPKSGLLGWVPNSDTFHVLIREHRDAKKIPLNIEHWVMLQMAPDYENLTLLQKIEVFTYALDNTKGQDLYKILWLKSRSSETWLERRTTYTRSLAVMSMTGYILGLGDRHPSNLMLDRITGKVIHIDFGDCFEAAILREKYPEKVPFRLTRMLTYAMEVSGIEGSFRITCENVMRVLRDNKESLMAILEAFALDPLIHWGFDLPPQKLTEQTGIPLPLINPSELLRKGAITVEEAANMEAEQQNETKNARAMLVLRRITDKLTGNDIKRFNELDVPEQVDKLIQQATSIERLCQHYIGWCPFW
Sequence of TORC1 (TOR complex 1 kinase) (P38873 whole entry partner): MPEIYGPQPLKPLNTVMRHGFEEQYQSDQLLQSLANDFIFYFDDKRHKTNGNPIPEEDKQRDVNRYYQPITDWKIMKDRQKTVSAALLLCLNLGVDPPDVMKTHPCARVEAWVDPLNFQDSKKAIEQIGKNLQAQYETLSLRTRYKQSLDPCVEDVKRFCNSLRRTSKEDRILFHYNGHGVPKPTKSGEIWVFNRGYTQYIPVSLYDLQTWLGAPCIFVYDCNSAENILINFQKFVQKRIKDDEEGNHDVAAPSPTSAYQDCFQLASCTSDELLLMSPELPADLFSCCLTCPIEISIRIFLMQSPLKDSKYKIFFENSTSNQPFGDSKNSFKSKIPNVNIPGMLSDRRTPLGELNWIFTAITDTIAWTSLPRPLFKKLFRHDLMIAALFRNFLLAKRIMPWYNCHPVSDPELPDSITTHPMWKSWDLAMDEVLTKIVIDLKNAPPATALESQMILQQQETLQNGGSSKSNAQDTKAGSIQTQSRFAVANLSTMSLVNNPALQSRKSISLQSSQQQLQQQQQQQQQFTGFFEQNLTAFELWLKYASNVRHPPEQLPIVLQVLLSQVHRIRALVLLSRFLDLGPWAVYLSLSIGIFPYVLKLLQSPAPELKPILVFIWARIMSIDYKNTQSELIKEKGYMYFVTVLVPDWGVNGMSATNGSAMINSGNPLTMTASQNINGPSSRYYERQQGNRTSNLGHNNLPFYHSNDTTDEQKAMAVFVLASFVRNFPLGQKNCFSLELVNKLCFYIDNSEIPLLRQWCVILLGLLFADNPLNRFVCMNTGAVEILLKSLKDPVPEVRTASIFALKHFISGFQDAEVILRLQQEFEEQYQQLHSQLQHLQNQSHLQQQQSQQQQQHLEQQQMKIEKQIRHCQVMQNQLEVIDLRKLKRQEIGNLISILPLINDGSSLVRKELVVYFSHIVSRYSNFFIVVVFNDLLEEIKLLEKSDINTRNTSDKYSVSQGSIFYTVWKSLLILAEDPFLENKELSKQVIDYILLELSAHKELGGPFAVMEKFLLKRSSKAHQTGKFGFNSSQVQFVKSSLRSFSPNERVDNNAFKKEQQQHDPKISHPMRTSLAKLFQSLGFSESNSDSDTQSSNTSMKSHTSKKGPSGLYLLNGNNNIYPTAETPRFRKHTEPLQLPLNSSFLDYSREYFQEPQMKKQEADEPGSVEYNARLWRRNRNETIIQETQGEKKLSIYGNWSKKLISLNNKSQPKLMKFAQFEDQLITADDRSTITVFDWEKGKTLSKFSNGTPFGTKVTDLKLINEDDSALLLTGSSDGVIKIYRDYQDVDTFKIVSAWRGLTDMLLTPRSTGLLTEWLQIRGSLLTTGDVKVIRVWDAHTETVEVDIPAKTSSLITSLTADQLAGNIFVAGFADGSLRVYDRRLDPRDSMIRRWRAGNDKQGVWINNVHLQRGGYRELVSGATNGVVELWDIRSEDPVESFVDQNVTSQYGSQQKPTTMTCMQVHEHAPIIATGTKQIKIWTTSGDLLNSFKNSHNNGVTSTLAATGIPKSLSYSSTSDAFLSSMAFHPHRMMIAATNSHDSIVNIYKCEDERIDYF

## CNc1nc(N)c([N+](=O)[O-])c(Nc2cccc(F)c2)n1 [CID 3528206]
  IC50: ~150 nM
